Tested on: PC-3 cells
Test: PC-3 Oxygen Rate Consumption (OCR) Assay
Format: cell-based
Conditions: Homo sapiens, 0.05 h, medium with 2% FBS, OCR at 3-min post-injection normalized to % increase over DMSO-treated cells, concentration for half-maximal OCR increase, read-out: EC50-PC3-OCR-FBS-3min
How it was run: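 PC-3 cells seeded a day before, equilibrated 1 h in XF medium with 10 mM glucose, 1 mM pyruvate, 2% FBS, non-CO2 at 37 °C. Compound injected after basal OCR reads; OCR at 3 min post-injection normalized as % increase over DMSO, EC50 = half-maximal increase; six replicates.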

Compound | EC50 [µM]
NC(=O)c1ccc(S(=O)(=O)Nc2cc(C(F)(F)F)ccc2C(=O)NC23CC(C(F)(F)F)(C2)C3)cc1 [Example 53, 2-((4-carbamoylphenyl)sulfonamido)-4-(trifluoromethyl)-N-(3-(trifluoromethyl)bicyclo[1.1.1]pentan-1-yl)benzamide] | 46.1
CS(=O)(=O)Nc1c(C(=O)NC23CCC(C#N)(CC2)CC3)ccc2ccccc12 [Example 219, N-(4-cyanobicyclo[2.2.2]octan-1-yl)-1-(methylsulfonamido)-2-naphthamide] | ≥ 200
N#Cc1ccc(S(=O)(=O)Nc2cc(C(F)(F)F)ccc2C(=O)NC23CC(C(F)(F)F)(C2)C3)cc1 [Example 158, 2-((4-cyanophenyl)sulfonamido)-4-(trifluoromethyl)-N-(3-(trifluoromethyl)bicyclo[1.1.1]pentan-1-yl)benzamide] | 1.43
CC(C)(C)S(=O)(=O)Nc1ccc(C#N)cc1C(=O)NC12CC(C(F)(F)F)(C1)C2 [Example 97, 5-cyano-2-((1,1-dimethylethyl)sulfonamido)-N-(3-(trifluoromethyl)bicyclo[1.1.1]pentan-1-yl)benzamide] | 1.43
CS(=O)(=O)Nc1ccc(C(F)(F)F)cc1C(=O)NC1CC2(CC(=O)C2)C1 [Example 195, 2-(methylsulfonamido)-N-(6-oxospiro[3.3]heptan-2-yl)-5-(trifluoromethyl)benzamide] | 67.5
O=C(NC12CC(C(F)(F)F)(C1)C2)c1ccccc1NS(=O)(=O)CC(F)(F)F [Example 143, 2-((2,2,2-trifluoroethyl)sulfonamido)-N-(3-(trifluoromethyl)bicyclo[1.1.1]pentan-1-yl)benzamide] | 10.2
CCCCS(=O)(=O)Nc1ccc(C#N)cc1C(=O)NC12CCC(C#N)(CC1)CC2 [Example 129, 2-(butylsulfonamido)-5-cyano-N-(4-cyanobicyclo[2.2.2]octan-1-yl)benzamide] | 24.3
N#CC12CCC(NC(=O)c3cc(C(F)(F)F)ccc3NS(=O)(=O)Cc3ccccc3)(CC1)CC2 [Example 196, N-(4-cyanobicyclo[2.2.2]octan-1-yl)-2-((phenylmethyl)sulfonamido)-5-(trifluoromethyl)benzamide] | 1.38
CC1(S(=O)(=O)Nc2cc(C(F)(F)F)ccc2C(=O)NC23CCC(C#N)(CC2)CC3)CC1 [Example 67, N-(4-cyanobicyclo[2.2.2]octan-1-yl)-2-((1-methylcyclopropane)-1-sulfonamido)-4-(trifluoromethyl)benzamide] | 5.92
COC1(C)CN(S(=O)(=O)Nc2ccc(C(F)(F)F)cc2C(=O)NC23CCC(C#N)(CC2)CC3)C1 [Example 225, N-(4-cyanobicyclo[2.2.2]octan-1-yl)-2-((3-methoxy-3-methylazetidine)-1-sulfonamido)-5-(trifluoromethyl)benzamide] | 6.74
O=C(NC12CC(c3ccccc3)(C1)C2)c1ccc(C(F)(F)F)cc1NS(=O)(=O)c1ccc(OC(F)(F)F)cc1 [Example 31, N-(3-phenylbicyclo[1.1.1]pentan-1-yl)-2-((4-(trifluoromethoxy)phenyl)sulfonamido)-4-(trifluoromethyl)benzamide] | 0.595
CS(=O)(=O)Nc1cc(Br)ccc1C(=O)NC12CC(c3ccccc3)(C1)C2 [Example 49, 4-bromo-2-(methylsulfonamido)-N-(3-phenylbicyclo[1.1.1]pentan-1-yl)benzamide] | 4.99
N#CC12CCC(NC(=O)c3cc(C(F)(F)F)ccc3NS(=O)(=O)N3CC(OC(F)(F)F)C3)(CC1)CC2 [Example 227, N-(4-cyanobicyclo[2.2.2]octan-1-yl)-2-((3-(trifluoromethoxy)azetidine)-1-sulfonamido)-5-(trifluoromethyl)benzamide] | 1.45
Cn1cc(S(=O)(=O)Nc2cc(C(F)(F)F)ccc2C(=O)NC23CC(c4ccccc4)(C2)C3)cn1 [Example 39, 2-((1-methyl-1H-pyrazole)-4-sulfonamido)-N-(3-phenylbicyclo[1.1.1]pentan-1-yl)-4-(trifluoromethyl)benzamide] | 7.34
N#CC12CC(NC(=O)c3ccc(C(F)(F)F)cc3NS(=O)(=O)c3c(Cl)cc(Cl)cc3Cl)(C1)C2 [Example 40, N-(3-cyanobicyclo[1.1.1]pentan-1-yl)-2-((2,4,6-trichlorophenyl)sulfonamido)-4-(trifluoromethyl)benzamide] | 6.58
CCCS(=O)(=O)Nc1ccc(C(F)(F)F)cc1C(=O)NC12CCC(C#N)(CC1)CC2 [Example 126, N-(4-cyanobicyclo[2.2.2]octan-1-yl)-2-(propylsulfonamido)-5-(trifluoromethyl)benzamide] | 5.12
CC(C)S(=O)(=O)Nc1cc(C(F)(F)F)ccc1C(=O)NC12CC(C1)C2 [Example 55, N-(bicyclo[1.1.1]pentan-1-yl)-2-((1-methylethyl)sulfonamido)-4-(trifluoromethyl)benzamide] | 6.32

Compound | EC50 [µM]
CC(C)(C)S(=O)(=O)Nc1cc(C(F)(F)F)ccc1C(=O)NC12CCC(C#N)(CC1)CC2 [Example 114, N-(4-cyanobicyclo[2.2.2]octan-1-yl)-2-((1,1-dimethylethyl)sulfonamido)-4-(trifluoromethyl)benzamide] | 3.48
CS(=O)(=O)N1C2CCC1CN(S(=O)(=O)Nc1ccc(C(F)(F)F)cc1C(=O)NC13CCC(C#N)(CC1)CC3)C2 [Example 246, N-(4-cyanobicyclo[2.2.2]octan-1-yl)-2-(((1R,5S)-8-(methylsulfonyl)-3,8-diazabicyclo[3.2.1]octane)-3-sulfonamido)-5-(trifluoromethyl)benzamide] | 14.5
N#CC12CCC(NC(=O)c3cc(F)ccc3NS(=O)(=O)CCC(F)(F)F)(CC1)C2 [Example 222, N-(4-cyanobicyclo[2.2.1]heptan-1-yl)-5-fluoro-2-((3,3,3-trifluoropropyl)sulfonamido)benzamide] | 5.7
N#CC12CCC(NC(=O)c3ccc(F)cc3NS(=O)(=O)CCC(F)(F)F)(CC1)C2 [Example 223, N-(4-cyanobicyclo[2.2.1]heptan-1-yl)-4-fluoro-2-((3,3,3-trifluoropropyl)sulfonamido)benzamide] | 4.43
N#CC12CCC(NC(=O)c3ccc(F)cc3NS(=O)(=O)CCC(F)(F)F)(CC1)CC2 [Example 134, N-(4-cyanobicyclo[2.2.2]octan-1-yl)-4-fluoro-2-((3,3,3-trifluoropropyl)sulfonamido)benzamide] | 2.68
CS(=O)(=O)c1ccc(S(=O)(=O)Nc2cc(C(F)(F)F)ccc2C(=O)NC23CCC(CC2)C3)cc1 [Example 45, N-(bicyclo[2.2.1]heptan-1-yl)-2-((4-(methylsulfonyl)phenyl)sulfonamido)-4-(trifluoromethyl)benzamide] | 5.45
CC(C)S(=O)(=O)Nc1ccc(C(F)(F)F)cc1C(=O)NC12CCC(C#N)(CC1)CC2 [Example 72, N-(4-cyanobicyclo[2.2.2]octan-1-yl)-2-((1-methylethyl)sulfonamido)-5-(trifluoromethyl)benzamide] | 4.01
CC1(S(=O)(=O)Nc2cc(C(F)(F)F)ccc2C(=O)NC23CC(C#N)(C2)C3)CC1 [Example 64, N-(3-cyanobicyclo[1.1.1]pentan-1-yl)-2-((1-methylcyclopropane)-1-sulfonamido)-4-(trifluoromethyl)benzamide] | 5.22
CS(=O)(=O)Nc1ccc(S(F)(F)(F)(F)F)cc1C(=O)NC12CCC(C#N)(CC1)CC2 [Example 167, N-(4-cyanobicyclo[2.2.2]octan-1-yl)-2-(methylsulfonamido)-5-(pentafluoro-λ^6-sulfanyl)benzamide] | 5.88
CS(=O)(=O)c1ccc(S(=O)(=O)Nc2ccc(C(F)(F)F)cc2C(=O)NC23CC(c4ccccc4)(C2)C3)cc1 [Example 87, 2-((4-(methylsulfonyl)phenyl)sulfonamido)-N-(3-phenylbicyclo[1.1.1]pentan-1-yl)-5-(trifluoromethyl)benzamide] | 3.28
O=C(NC12CCC(C(F)(F)F)(CC1)CC2)c1ccc(OC(F)(F)F)cc1NS(=O)(=O)C1CCS(=O)(=O)CC1 [Example 240, 2-((1,1-dioxidotetrahydro-2H-thiopyran)-4-sulfonamido)-4-(trifluoromethoxy)-N-(4-(trifluoromethyl)bicyclo[2.2.2]octan-1-yl)benzamide] | 3.01
O=C(NC12CC(C(F)(F)F)(C1)C2)c1ccc(C(F)(F)F)cc1NS(=O)(=O)c1ccc(S(=O)(=O)C(F)(F)F)cc1 [Example 33, 4-(trifluoromethyl)-N-(3-(trifluoromethyl)bicyclo[1.1.1]pentan-1-yl)-2-((4-((trifluoromethyl)sulfonyl)phenyl)sulfonamido)benzamide] | 1.93
O=C(NC12CC(C(F)(F)F)(C1)C2)c1cc(C(F)(F)F)ccc1NS(=O)(=O)C1CCS(=O)(=O)CC1 [Example 162, 2-((1,1-dioxidotetrahydro-2H-thiopyran)-4-sulfonamido)-5-(trifluoromethyl)-N-(3-(trifluoromethyl)bicyclo[1.1.1]pentan-1-yl)benzamide] | 34.1
COC12CC(NC(=O)c3cc(C(F)(F)F)ccc3NS(C)(=O)=O)(C1)C2 [Example 170, N-(3-methoxybicyclo[1.1.1]pentan-1-yl)-2-(methylsulfonamido)-5-(trifluoromethyl)benzamide] | 44.8
O=C(NC12CC(C1)C2)c1ccc(F)cc1NS(=O)(=O)C1CC1 [Example 50, N-(bicyclo[1.1.1]pentan-1-yl)-2-(cyclopropanesulfonamido)-4-fluorobenzamide] | ≥ 100
CS(=O)(=O)c1ccc(S(=O)(=O)Nc2cc(Cl)c(Cl)cc2C(=O)NC23CC(C(F)(F)F)(C2)C3)cc1 [Example 92, 4,5-dichloro-2-((4-(methylsulfonyl)phenyl)sulfonamido)-N-(3-(trifluoromethyl)bicyclo[1.1.1]pentan-1-yl)benzamide] | 8.09
CCS(=O)(=O)Nc1cc(F)c(F)cc1C(=O)NC12CCC(C#N)(CC1)CC2 [Example 216, N-(4-cyanobicyclo[2.2.2]octan-1-yl)-4,5-difluoro-2-(ethylsulfonamido)benzamide] | 16.9

From patent publication US12049439B2 (OrsoBio, Inc., priority 2018, dated 2024)
